Some test systems named below: 786-0; A549; CAKI-1; COLO 205; EKVX; HCT-15; HT-29; LOX IMVI; MDA-N; MOLT-4; NCI-H460; OVCAR-3; OVCAR-5; RXF 393; SNB-19; UACC-62; NCI/ADR-RES; SF-268; SNB-75; UO-31.
Assay in all cases: growth of human tumour cells (NCI), 48 h

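Briefly, cells in 96-well plates were exposed to five compound concentrations for 48 h, and endpoints were estimated by linear interpolation. GI50: concentration for 50% inhibition of growth.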 The source made the active and inactive calls. Rule as the data show it: active = GI50 up to about 1.1 µM and inactive = higher. A value given as a limit tells only on which side of the number the result lay.

Take `CCOC(=O)c1cnc2oc3ccc(O)cc3c2c1-c1ccccc1`: the GI50 with 786-0 was 58.3 µM (inactive); in the test with A549, 32.4 µM (inactive); in the test with CAKI-1 it was > 100 µM (inactive); in the test with COLO 205, 28.5 µM (inactive); in the test with EKVX, 57.3 µM (inactive); in the test with HCT-15, 26.7 µM. Moreover, the GI50 in the test on HT-29 is 71.6 µM (inactive); in the test with LOX IMVI, 21.6 µM (inactive); in the test with MDA-N it was 52.7 µM (inactive); with MOLT-4, 7.4 µM (inactive); in the test on NCI-H460 it was 13.2 µM (inactive); with OVCAR-3, > 100 µM (inactive). Moreover, the GI50 is > 100 µM (inactive) with OVCAR-5, 41.1 µM (inactive) in the test with RXF 393, 52.4 µM (inactive) in the test with SNB-19 and 12.8 µM (inactive) in the test on UACC-62.
Consider `CCOc1ccc2c(ccc(/C=C/c3cc(C)c4cccnc4c3O)[n+]2C)c1`, for which the GI50 in the test on 786-0 was 0.53 µM (active); in the test with A549, 1.33 µM (inactive); with CAKI-1, 4.29 µM (inactive); in the test on COLO 205, 0.624 µM (active); with EKVX, 0.925 µM (active); with HCT-15 it was 3.66 µM. Besides, the GI50 with HT-29 is 0.378 µM (active); in the test with LOX IMVI, 0.356 µM (active); in the test on MOLT-4, 0.158 µM (active); with NCI-H460, 0.281 µM (active); with NCI/ADR-RES it was 41.6 µM (inactive); in the test with OVCAR-3, 0.129 µM (active). In addition, the GI50 in the test with OVCAR-5 was 1.24 µM (inactive); in the test with RXF 393 it was 3.71 µM (inactive); in the test with SF-268 it was 0.736 µM (active); in the test on SNB-19, 0.594 µM (active); in the test with SNB-75, 2.29 µM (inactive); with UACC-62, 1.53 µM (inactive). Besides, the GI50 in the test on UO-31 is 8.09 µM (inactive).
For `CSc1scc2c1/C(=N/NC(N)=O)CCC2`, the GI50 with 786-0 is > 100 µM (inactive); in the test with A549 it was 78.3 µM (inactive); with CAKI-1 it was 69.7 µM (inactive); in the test on COLO 205 it was > 100 µM (inactive); with HCT-15, greater than 100 µM; in the test on HT-29 it was > 100 µM (inactive). Moreover, the GI50 in the test on LOX IMVI is > 100 µM (inactive); in the test with MDA-N it was 45.3 µM (inactive); in the test on MOLT-4 it was 58.1 µM (inactive); with NCI-H460, 94.4 µM (inactive); with NCI/ADR-RES, 20.1 µM (inactive); with OVCAR-3 it was > 100 µM (inactive). For the same compound, the GI50 in the test on OVCAR-5 was > 100 µM (inactive); in the test with SF-268, 38.5 µM (inactive); in the test with SNB-19, > 100 µM (inactive); with SNB-75 it was 36.7 µM (inactive); with UACC-62 it was > 100 µM (inactive); in the test with UO-31 it was > 100 µM (inactive).
As to `O=C1CN(c2cccc(Cl)c2)C(=O)CN1CCN1CC(=O)N(c2cccc(Cl)c2)CC1=O`, the GI50 is > 100 µM (inactive) with 786-0; > 100 µM (inactive) in the test on A549; > 100 µM (inactive) in the test with CAKI-1; > 100 µM (inactive) with COLO 205; > 100 µM (inactive) in the test on EKVX; greater than 100 µM in the test with HCT-15. For the same compound, the GI50 in the test with HT-29, in the test on MDA-N, with MOLT-4, with NCI-H460, in the test on OVCAR-3 and with OVCAR-5 was > 100 µM (inactive) throughout. Besides, the GI50 in the test with RXF 393, with SF-268, in the test with SNB-19, in the test on SNB-75, in the test on UACC-62 and in the test on UO-31 was > 100 µM (inactive) throughout.
On to `CC(=O)c1c(O)cc(O)c(-c2c(C)cc(O)c3c2C(=O)c2cccc(O)c2C3=O)c1O`, for which the GI50 with 786-0 is 17.1 µM (inactive); in the test on A549, 14.6 µM (inactive); in the test on EKVX, 16.1 µM (inactive); in the test with HCT-15, 14.1 µM; in the test with HT-29 it was 17.1 µM (inactive); with LOX IMVI, 12.8 µM (inactive). In addition, the GI50 with MDA-N was 16 µM (inactive); with MOLT-4, 10.8 µM (inactive); in the test on NCI-H460, 15 µM (inactive); in the test with NCI/ADR-RES, 15.8 µM (inactive); with OVCAR-3 it was 17.6 µM (inactive); in the test on OVCAR-5, 17.3 µM (inactive). In addition, the GI50 in the test on SF-268 was 15.1 µM (inactive); in the test on SNB-19, 21 µM (inactive); in the test with SNB-75 it was 15.2 µM (inactive); in the test with UACC-62 it was 14.5 µM (inactive); with UO-31 it was 14.5 µM (inactive).
With `NCCC(=O)N[C@@H](Cc1cc(O)c(O)c(SCC(NC(=O)CC[C@H](N)C(=O)O)C(=O)NCC(=O)O)c1)C(=O)O` (stereo partly specified), the GI50 in the test on 786-0 is > 50 µM (inactive); in the test on A549, > 50 µM (inactive); in the test with CAKI-1, > 50 µM (inactive); in the test with COLO 205, > 50 µM (inactive); in the test on EKVX, > 50 µM (inactive); in the test with HCT-15 it was greater than 50 µM. Moreover, the GI50 with HT-29, in the test with MDA-N, in the test on MOLT-4, with NCI-H460, with NCI/ADR-RES and in the test on OVCAR-3 was > 50 µM (inactive) each time. In addition, the GI50 in the test on OVCAR-5, in the test with RXF 393, with SF-268, in the test on SNB-19, with SNB-75 and in the test on UACC-62 was > 50 µM (inactive) each time. For the same compound, the GI50 with UO-31 was > 50 µM (inactive).
Take `COC(=O)C1C=CN(N(C)C)C2=C1C(=O)c1c(O)cccc1C2=O` (stereo unspecified): the GI50 was 2.62 µM (inactive) with 786-0; 2.47 µM (inactive) in the test on A549; 2.47 µM (inactive) in the test with CAKI-1; 1.5 µM (inactive) in the test with COLO 205; 2.79 µM (inactive) in the test on EKVX; 1.51 µM in the test with HCT-15. The GI50 with HT-29 was 1.49 µM (inactive); in the test with MDA-N, 0.422 µM (active); in the test on MOLT-4, 2.56 µM (inactive); in the test with NCI-H460, 1.04 µM (active); in the test on NCI/ADR-RES, 2.22 µM (inactive); in the test with OVCAR-3, 0.625 µM (active). For the same compound, the GI50 was 2.42 µM (inactive) in the test on OVCAR-5; 2.79 µM (inactive) with RXF 393; 3.83 µM (inactive) in the test with SF-268; 2.34 µM (inactive) with SNB-19; 1.66 µM (inactive) in the test on SNB-75; 1.04 µM (active) in the test on UACC-62. For the same compound, the GI50 with UO-31 was 3.82 µM (inactive).
In the case of `CCc1n[nH]c(=O)n1NC(=O)/C=C\C(=O)O`, the GI50 with 786-0 was > 100 µM (inactive); in the test on A549 it was > 100 µM (inactive); with CAKI-1, > 100 µM (inactive); in the test with COLO 205 it was > 100 µM (inactive); in the test on EKVX, > 100 µM (inactive); with HCT-15, greater than 100 µM. In addition, the GI50 in the test on HT-29, with MDA-N, with MOLT-4, in the test with NCI-H460, in the test with NCI/ADR-RES and with OVCAR-3 was > 100 µM (inactive) each time. For the same compound, the GI50 in the test with OVCAR-5, in the test on RXF 393, in the test on SF-268, in the test on SNB-75 and in the test on UACC-62 was > 100 µM (inactive) throughout.
As for `c1cncc(C2(c3cc4ccccc4[nH]3)COCO2)c1` (stereo unspecified), the GI50 with 786-0 was > 100 µM (inactive); with A549, 94.2 µM (inactive); with CAKI-1, > 100 µM (inactive); in the test with COLO 205, 19.1 µM (inactive); in the test with EKVX, > 100 µM (inactive); with HCT-15, greater than 100 µM. Besides, the GI50 was > 100 µM (inactive) in the test with HT-29; > 100 µM (inactive) with LOX IMVI; 97.9 µM (inactive) in the test with MOLT-4; > 100 µM (inactive) in the test with NCI-H460; > 100 µM (inactive) in the test with NCI/ADR-RES; > 100 µM (inactive) in the test on OVCAR-3. In addition, the GI50 in the test on OVCAR-5 was > 100 µM (inactive); in the test with RXF 393 it was > 100 µM (inactive); in the test with SF-268 it was > 100 µM (inactive); in the test with SNB-19, > 100 µM (inactive); with SNB-75 it was > 100 µM (inactive); in the test on UACC-62, 96.8 µM (inactive). The GI50 in the test on UO-31 was 58.3 µM (inactive).
`CCOC(=O)c1c(NS(=O)(=O)c2ccccc2)sc2c1CCCC2`: the GI50 in the test on 786-0 was 80.5 µM (inactive); in the test on A549 it was 47.9 µM (inactive); in the test on CAKI-1 it was > 100 µM (inactive); in the test on COLO 205 it was 44.4 µM (inactive); with EKVX it was 48.4 µM (inactive); in the test with HCT-15, 33.7 µM. For the same compound, the GI50 in the test with HT-29 was 39.4 µM (inactive); in the test on MDA-N, > 100 µM (inactive); in the test with MOLT-4, 40.6 µM (inactive); in the test with NCI-H460 it was > 100 µM (inactive); in the test on NCI/ADR-RES it was 62.1 µM (inactive); in the test on OVCAR-3, 22.5 µM (inactive). Moreover, the GI50 in the test with OVCAR-5 was > 100 µM (inactive); in the test on RXF 393, > 100 µM (inactive); with SF-268 it was 64.9 µM (inactive); in the test on SNB-19 it was 93.1 µM (inactive); in the test with SNB-75 it was > 100 µM (inactive); in the test with UACC-62, 76 µM (inactive). Moreover, the GI50 in the test with UO-31 is 70.5 µM (inactive).
In the case of `CCOC(=O)C1(C)CCc2sc(N)c(C#N)c21` (stereo unspecified), the GI50 in the test with 786-0 was > 100 µM (inactive); in the test on A549, > 100 µM (inactive); with COLO 205, > 100 µM (inactive); with EKVX it was > 100 µM (inactive); in the test with HCT-15 it was greater than 100 µM; in the test on HT-29 it was > 100 µM (inactive). For the same compound, the GI50 with MDA-N, in the test with MOLT-4, in the test with NCI-H460, with OVCAR-5, in the test on RXF 393 and in the test with SNB-19 was > 100 µM (inactive) each time. Further, the GI50 in the test on SNB-75, with UACC-62 and in the test on UO-31 was > 100 µM (inactive) in each case.

Source of the values: ChEMBL document CHEMBL1201862, “PubChem BioAssay data set” (2004).
